Experimental data: US4680396A, “Bis(aminoalkyl)piperazine derivatives and their use as metal ion control agents” (The Dow Chemical Company, priority 1984, dated 1987)
“Also recorded” adds a separate entry of the source. Counter-ions that a name gives are not always drawn.

Tests used:
[1] = Calcium Scale Inhibitor Test (NACE test method TM-03-74), calcium carbonate scale; settings: for Percent Inhibition at 24 Hrs. / Percent Inhibition at 48 Hrs. / Percent Inhibition at 72 Hrs.: 10 ppm based on active acid content; for threshold activity (in words): threshold agent, less than stoichiometric amounts
Description: To show the utility of the above compounds as scale inhibitors, the following test was run.
Calcium Scale Inhibitor Test
The compounds were evaluated as scale inhibitors for calcium carbonate scale according to National Association of Corrosion Engineers (NACE) test method TM-03-74. Note the dramatic improvement of the phosphonic acids prepared from the bis(aminoethyl)piperazine and bis(aminopropyl)piperazine compounds of this invention when compared to aminoethylpiperazinetrimethylenephosphonic acid taught in the U.S. patent literature as a good scale inhibition compound.
*ppm based on active acid content

[2] = Titration with standard copper solution in the presence of chrome azurol-S indicator (sequestering/chelating); settings: titrated with standard copper solution
Excerpt: The compounds of this invention can also function as sequestering/chelating agents. For example, compounds were titrated with standard copper solution in the presence of chrome azurol-S indicator. The compound of Example 9 complexed about one mole of copper per mole of ligand. […] The compound of Example 3 was titrated and found to complex approximately three moles of copper per mole of ligand. The compound can function as either a threshold compound or a chelating agent.

Structure (SMILES)	Percent Inhibition at 24 Hrs. [1] [%]	Percent Inhibition at 48 Hrs. [1] [%]	Percent Inhibition at 72 Hrs. [1] [%]	copper complexed per mole of ligand [2]	threshold activity (in words) [1]
O=P(O)(O)CN(CCCN1CCN(CCCN(CP(=O)(O)O)CP(=O)(O)O)CC1)CP(=O)(O)O [Example 1, completely phosphonomethylated bis(aminopropyl)piperazine]	99	93	90		
O=P(O)(O)CNCCCN1CCN(CCCN(CP(=O)(O)O)CP(=O)(O)O)CC1 [Example 2]	99	93	91		
O=P(O)(O)CN(CCN1CCN(CCN(CP(=O)(O)O)CP(=O)(O)O)CC1)CP(=O)(O)O [Example 3]	99	91	89	approximately three	
O=P(O)(O)CNCCN1CCN(CCN(CP(=O)(O)O)CP(=O)(O)O)CC1 [Example 4]	97	87	79		
O=C(O)CN(CCN1CCN(CCN(CP(=O)(O)O)CP(=O)(O)O)CC1)CP(=O)(O)O [Example 5]	96	89	83		
O=P(O)(O)CN(CCN1CCN(CCN(CP(=O)(O)O)CP(=O)(O)O)CC1)CC(O)CS(=O)(=O)O (stereo not shown) [Example 6]	85	73	75		
O=P(O)(O)CN(CCCN1CCN(CCCN(CP(=O)(O)O)CP(=O)(O)O)CC1)CC(O)CS(=O)(=O)O (stereo not shown) [Example 7]	92	77	79		
CC(O)CN(CCN1CCN(CCN(CP(=O)(O)O)CP(=O)(O)O)CC1)CP(=O)(O)O (stereo not shown) [Example 8]	79	77	73		
O=C(O)CN(CCN1CCN(CCN(CC(=O)O)CC(=O)O)CC1)CC(=O)O [Example 9, tetrasodium salt of bis(aminoethyl)piperazine-tetraacetic acid]	55	51	50	about one	not a good threshold compound; also recorded: ineffective as a threshold compound
O=P(O)(O)CN1CCN(CCN(CP(=O)(O)O)CP(=O)(O)O)CC1 [Example A, aminoethylpiperazine trimethylenephosphonic acid, reference compound]	77	65	60		not have very good threshold activity
